Measurements as given in patent EP4707280A1, “1,4-CINEOLE DERIVATIVE AND INTERMEDIATE THEREOF, HERBICIDE CONTAINING SAID DERIVATIVE AS ACTIVE INGREDIENT, METHOD FOR USING HERBICIDE, AND METHOD FOR PREPARING AGROCHEMICAL COMPOSITION” (HOKKO CHEMICAL INDUSTRY CO., LTD., priority 2023, dated 2024).

Columns and labels:
Type in all cases: in vivo
[1] = tested on: Echinochloa crus-galli var. formosensis; assay: Test Example 1: herbicidal effect test by soil application in paddy rice; conditions: Echinochloa crus-galli, soil, 336 h; 120 g active ingredient per 10 ares; applied immediately after sowing, flooded pots; 14 days after application; read-out: weed inhibition rate
Method in brief: (§1)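 Pre-emergence paddy treatment: diluted emulsifiable concentrate applied by dropper at 120 g a.i./10 ares immediately after sowing. Seeds (30 per species, 0–1 cm deep) in fertilized, puddled paddy soil kept under ~3 cm flood in a glass greenhouse.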

[2] = tested on: Scirpus juncoides; assay: as above; conditions: Schoenoplectiella juncoides, soil, 336 h; 120 g active ingredient per 10 ares; applied immediately after sowing, flooded pots; 14 days after application; read-out: weed inhibition rate
Method in brief: as §1

[3] = tested on: Monochoria vaginalis; assay: as above; conditions: Pontederia vaginalis, soil, 336 h; 120 g active ingredient per 10 ares; applied immediately after sowing, flooded pots; 14 days after application; read-out: weed inhibition rate
Method in brief: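 Inhibition rate (%) read 14 days after treatment, duplicate pots. Water-diluted emulsifiable concentrate was applied by dropper at 120 g active ingredient/10 ares right after sowing. Seeds (30 per species, 0–1 cm deep) went into puddled paddy soil kept flooded at about 3 cm in a greenhouse.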

[4] = tested on: Echinochloa crus-galli; assay: Test Example 4: herbicidal effect test by stem and leaf treatment in upland field; conditions: Echinochloa crus-galli; 120 g per 10 ares; sprayed seven days after sowing, upland soil; 14 days after application; read-out: weed inhibition rate
[5] = tested on: Echinochloa crus-galli var. formosensis; assay: Test Example 5: herbicidal effect test by soil application in paddy rice (low dose); conditions: Echinochloa crus-galli, soil, 336 h; 7.5 g per 10 ares; applied immediately after sowing, flooded pots; 14 days after application; read-out: weed inhibition rate
Method in brief: (§2)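 Paddy-soil pots, weeds sown 0–1 cm deep and flooded to about 3 cm in a greenhouse. Emulsifiable concentrate diluted in water and dropped in right after sowing at 7.5 g active ingredient per 10 ares. Duplicates; effect scored 14 days after application.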

[6] = tested on: Monochoria vaginalis; assay: as above; conditions: Pontederia vaginalis, 336 h, 7.5 g per 10 ares, applied immediately after sowing, flooded pots, 14 days after application, read-out: weed inhibition rate
Method in brief: as §2

[7] = tested on: Scirpus juncoides; assay: as above; conditions: Schoenoplectiella juncoides, 336 h, 7.5 g per 10 ares, applied immediately after sowing, flooded pots, 14 days after application, read-out: weed inhibition rate
Method in brief: as §2

[8] = tested on: Monochoria vaginalis; assay: Test Example 6: herbicidal effect test by application during growth period of paddy rice (low dose); conditions: Pontederia vaginalis; 7.5 g per 10 ares; applied seven days after sowing, flooded pots; 14 days after application; read-out: weed inhibition rate
Method in brief: (§3)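 Emulsifiable concentrate, water-diluted, dropped onto flooded paddy pots 7 days post-sowing at 7.5 g active ingredient/10 a. Greenhouse-grown weeds; percent inhibition scored at day 14 after treatment.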

[9] = tested on: Scirpus juncoides; assay: as above; conditions: Schoenoplectiella juncoides; 7.5 g per 10 ares; applied seven days after sowing, flooded pots; 14 days after application; read-out: weed inhibition rate
Method in brief: as §3

[10] = tested on: Chenopodium album; assay: Test Example 3: herbicidal effect test by soil application in upland field; conditions: 120 g per 10 ares, sprayed one day after sowing, 14 days after application, read-out: weed inhibition rate
Method in brief: (§4)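 Weed inhibition (%) was assessed 14 days after treatment, in duplicate per concentration group. Seeds had been mixed into the upper 1 cm of upland alluvial loam, and the soil surface was sprayed one day later with the diluted emulsifiable concentrate at 120 g active ingredient per 10 ares.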

[11] = tested on: Amaranthus viridis; assay: as above; conditions: Amaranthus viridis, 120 g per 10 ares, sprayed one day after sowing, 14 days after application, read-out: weed inhibition rate
Method in brief: as §4

CC(C)[C@]12C[C@@H](OCc3ccsc3)[C@](C)(C[C@@H]1Br)O2 [1-722, (1S,2R,4R,5S)-5-bromo-1-methyl-4-isopropyl-2-(thiophen-3-ylmethoxy)-7-oxabicyclo[2.2.1]heptane]
≥ 80%: pest or weed control at 1200 g/ha [1] | pest or weed control at 1200 g/ha [2] | pest or weed control at 1200 g/ha [3] | inhibition at 1200 g/ha [4] | inhibition at 75 g/ha [5] | inhibition at 75 g/ha [6] | inhibition at 75 g/ha [7] | inhibition at 75 g/ha [8] | inhibition at 75 g/ha [9]

CCC1C[C@]2(C)O[C@@]1(C(C)C)C[C@H]2OCc1ccccc1F (stereo partly drawn) [1-126, (1R,4S,5R)-2-ethyl-5-[(2-fluorobenzyl)oxy]-1-isopropyl-4-methyl-7-oxabicyclo[2.2.1]heptane]
≥ 80%: pest or weed control at 1200 g/ha [1] | pest or weed control at 1200 g/ha [2] | pest or weed control at 1200 g/ha [3] | inhibition at 1200 g/ha [10] | inhibition at 1200 g/ha [4] | inhibition at 75 g/ha [5]

CCC1C[C@]2(C)O[C@@]1(C(C)C)C[C@H]2OCc1ccccc1C (stereo partly drawn) [1-123, (1R,4S,5R)-2-ethyl-1-isopropyl-4-methyl-5-((2-methylbenzyl)oxy)-7-oxabicyclo[2.2.1]heptane]
≥ 80%: pest or weed control at 1200 g/ha [1] | pest or weed control at 1200 g/ha [3] | inhibition at 1200 g/ha [10] | inhibition at 1200 g/ha [4] | inhibition at 75 g/ha [5]

CCO[C@H]1C[C@]2(C)O[C@@]1(C(C)C)C[C@H]2OCc1ccccc1F [1-183, (1S,2R,4R,5S)-5-ethoxy-2-[(2-fluorophenyl)methoxy]-1-methyl-4-isopropyl-7-oxabicyclo[2.2.1]heptane]
≥ 80%: pest or weed control at 1200 g/ha [1] | pest or weed control at 1200 g/ha [2] | pest or weed control at 1200 g/ha [3] | inhibition at 1200 g/ha [4] | inhibition at 75 g/ha [5] | inhibition at 75 g/ha [6] | inhibition at 75 g/ha [7] | inhibition at 75 g/ha [8] | inhibition at 75 g/ha [9]

CC(C)[C@]12C=C[C@](C)(O1)[C@H](OCc1ccccc1)C2 [3-1, (1R,4S,5R)-4-methyl-5-phenylmethoxy-1-isopropyl-7-oxabicyclo[2.2.1]hept-2-ene]
≥ 80%: pest or weed control at 1200 g/ha [1] | pest or weed control at 1200 g/ha [2] | pest or weed control at 1200 g/ha [3] | inhibition at 1200 g/ha [4] | inhibition at 75 g/ha [5] | inhibition at 75 g/ha [6] | inhibition at 75 g/ha [7] | inhibition at 75 g/ha [8] | inhibition at 75 g/ha [9]

CC(C)[C@]12C[C@@H](OCc3c(F)cccc3F)[C@](C)(C[C@@H]1Br)O2 [1-21, (1S,2R,4R,5S)-5-bromo-2-[(2,6-difluorophenyl)methoxy]-1-methyl-4-isopropyl-7-oxabicyclo[2.2.1]heptane]
≥ 80%: pest or weed control at 1200 g/ha [1] | pest or weed control at 1200 g/ha [2] | pest or weed control at 1200 g/ha [3] | inhibition at 1200 g/ha [4] | inhibition at 75 g/ha [5] | inhibition at 75 g/ha [6] | inhibition at 75 g/ha [7] | inhibition at 75 g/ha [8] | inhibition at 75 g/ha [9]

CC(C)[C@]12C[C@@H](OCc3ccccc3)[C@](C)(C[C@@H]1Br)O2 [1-15, (1S,2R,4R,5S)-5-bromo-1-methyl-2-phenylmethoxy-4-isopropyl-7-oxabicyclo[2.2.1]heptane]
≥ 80%: pest or weed control at 1200 g/ha [1] | pest or weed control at 1200 g/ha [2] | pest or weed control at 1200 g/ha [3] | inhibition at 1200 g/ha [4] | inhibition at 75 g/ha [5] | inhibition at 75 g/ha [6] | inhibition at 75 g/ha [7] | inhibition at 75 g/ha [8] | inhibition at 75 g/ha [9]

CC(C)C12CC(OCc3ccccc3F)C(C)(CC1Br)O2 (stereo not drawn) [1-1355, 5-bromo-2-[(2-fluorophenyl)methoxy]-1-methyl-4-isopropyl-7-oxabicyclo[2.2.1]heptane]
≥ 80%: pest or weed control at 1200 g/ha [1] | pest or weed control at 1200 g/ha [2] | pest or weed control at 1200 g/ha [3] | inhibition at 1200 g/ha [4] | inhibition at 75 g/ha [5] | inhibition at 75 g/ha [6] | inhibition at 75 g/ha [7] | inhibition at 75 g/ha [8] | inhibition at 75 g/ha [9]

Cc1ccccc1CO[C@@H]1C[C@@]2(C(C)C)C=C[C@]1(C)O2 [3-2, (1R,4S,5R)-4-methyl-5-[(2-methylphenyl)methoxy]-1-isopropyl-7-oxabicyclo[2.2.1]hept-2-ene]
≥ 80%: pest or weed control at 1200 g/ha [1] | pest or weed control at 1200 g/ha [2] | pest or weed control at 1200 g/ha [3] | inhibition at 1200 g/ha [11] | inhibition at 1200 g/ha [4] | inhibition at 75 g/ha [5] | inhibition at 75 g/ha [6] | inhibition at 75 g/ha [7] | inhibition at 75 g/ha [8] | inhibition at 75 g/ha [9]

Cc1ccccc1CO[C@@H]1C[C@]2(C(C)C)O[C@@]1(C)C[C@@H]2O [1-24, (1R,2S,4S,5R)-1-isopropyl-4-methyl-5-((2-methylbenzyl)oxy)-7-oxabicyclo[2.2.1]heptan-2-ol]
≥ 80%: pest or weed control at 1200 g/ha [1] | pest or weed control at 1200 g/ha [2] | pest or weed control at 1200 g/ha [3] | inhibition at 1200 g/ha [4] | inhibition at 75 g/ha [5] | inhibition at 75 g/ha [6] | inhibition at 75 g/ha [7] | inhibition at 75 g/ha [8] | inhibition at 75 g/ha [9]

CC(C)[C@]12C[C@@H](OCc3ccc(F)cc3)[C@](C)(C[C@@H]1Br)O2 [1-691, (1S,2R,4R,5S)-5-bromo-2-[(4-fluorophenyl)methoxy]-1-methyl-4-isopropyl-7-oxabicyclo[2.2.1]heptane]
≥ 80%: pest or weed control at 1200 g/ha [1] | pest or weed control at 1200 g/ha [2] | pest or weed control at 1200 g/ha [3] | inhibition at 1200 g/ha [4] | inhibition at 75 g/ha [5] | inhibition at 75 g/ha [6] | inhibition at 75 g/ha [7] | inhibition at 75 g/ha [8] | inhibition at 75 g/ha [9]

CC(C)[C@]12C[C@@H](OCc3c(F)cccc3Br)[C@](C)(CC1=O)O2 [2-355, (1R,4S,5R)-5-((2-bromo-6-fluorobenzyl)oxy)-1-isopropyl-4-methyl-7-oxabicyclo[2.2.1]heptan-2-one]
≥ 80%: pest or weed control at 1200 g/ha [1] | pest or weed control at 1200 g/ha [2] | pest or weed control at 1200 g/ha [3] | inhibition at 1200 g/ha [4] | inhibition at 75 g/ha [5] | inhibition at 75 g/ha [6] | inhibition at 75 g/ha [7] | inhibition at 75 g/ha [8] | inhibition at 75 g/ha [9]
